Assay results reported in ChEMBL document CHEMBL1201862, “PubChem BioAssay data set” (2004).
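Results reflect a 48-hour exposure of cells in 96-well plates to compound at five concentrations. At the GI50, growth is halved.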 The source made the active and inactive calls. Cut-off read from the data, not from the text of the source: active = GI50 up to about 1.1 µM and inactive = higher.

How the values were obtained:
Experiment in all cases: NCI anticancer screen, dose series, 48 h
U-251 = system: U-251
HOP-62 = system: HOP-62
ACHN = system: ACHN
PC-3 = system: PC-3
Hs-578T = system: Hs-578T
SK-OV-3 = system: SK-OV-3
LOX IMVI = system: LOX IMVI
HT-29 = system: HT-29
MDA-MB-435 = system: MDA-MB-435
OVCAR-4 = system: OVCAR-4
IGROV-1 = system: IGROV-1
MCF7 = system: MCF7
SK-MEL-28 = system: SK-MEL-28
NCI-H226 = system: NCI-H226
UACC-62 = system: UACC-62
TK-10 = system: TK-10
RXF 393 = system: RXF 393
SN12C = system: SN12C
MDA-N = system: MDA-N
MDA-MB-231 = system: MDA-MB-231

Measured: GI50

CN(C)c1ccccc1CN1CCCN(Cc2ccccc2N(C)C)C1c1ccncc1
inactive: U-251 23 µM | HOP-62 15.4 µM | ACHN 24.8 µM | PC-3 17.9 µM | Hs-578T 17.7 µM | SK-OV-3 16.5 µM | LOX IMVI 13.6 µM | HT-29 11.6 µM | MDA-MB-435 6.28 µM | OVCAR-4 15 µM | IGROV-1 14.9 µM | MCF7 15.9 µM | SK-MEL-28 9.06 µM | NCI-H226 21.4 µM | UACC-62 14.4 µM | TK-10 14.4 µM | RXF 393 10.2 µM | SN12C 20.4 µM | MDA-N 10.3 µM | MDA-MB-231 14.7 µM

C=CC1(c2ccc(OC)cc2)OCCCO1
inactive: U-251 > 100 µM | HOP-62 > 100 µM | ACHN > 100 µM | PC-3 > 100 µM | Hs-578T > 100 µM | SK-OV-3 > 100 µM | LOX IMVI > 100 µM | HT-29 > 100 µM | MDA-MB-435 > 100 µM | OVCAR-4 > 100 µM | IGROV-1 > 100 µM | MCF7 > 100 µM | SK-MEL-28 > 100 µM | NCI-H226 > 100 µM | UACC-62 > 100 µM | TK-10 > 100 µM | RXF 393 > 100 µM | SN12C > 100 µM | MDA-N > 100 µM | MDA-MB-231 > 100 µM

O=C(O)c1c(-c2c3ccc(=O)cc-3oc3cc(O)ccc23)cc2ccccc2c1-c1ccccc1
inactive: U-251 > 100 µM | HOP-62 > 100 µM | ACHN > 100 µM | PC-3 > 100 µM | Hs-578T > 100 µM | SK-OV-3 > 100 µM | LOX IMVI > 100 µM | HT-29 > 100 µM | MDA-MB-435 > 100 µM | OVCAR-4 > 100 µM | IGROV-1 > 100 µM | MCF7 > 100 µM | SK-MEL-28 > 100 µM | NCI-H226 > 100 µM | UACC-62 > 100 µM | TK-10 > 36.6 µM | RXF 393 > 100 µM | SN12C > 100 µM | MDA-N > 100 µM | MDA-MB-231 > 100 µM

CC(=O)NC(C)c1ccc(/N=N/N2CCCC2)cc1 (stereo not given)
inactive: U-251 > 100 µM | HOP-62 > 100 µM | ACHN > 100 µM | PC-3 > 100 µM | Hs-578T > 100 µM | SK-OV-3 > 100 µM | LOX IMVI > 100 µM | HT-29 > 100 µM | MDA-MB-435 > 100 µM | OVCAR-4 > 100 µM | IGROV-1 > 100 µM | MCF7 > 100 µM | SK-MEL-28 > 100 µM | NCI-H226 > 100 µM | TK-10 > 100 µM | RXF 393 > 100 µM | SN12C > 100 µM | MDA-N > 100 µM | MDA-MB-231 > 100 µM

CCOC(=O)c1cnc2oc3ccc(O)cc3c2c1C
inactive: U-251 > 100 µM | ACHN > 100 µM | PC-3 > 100 µM | Hs-578T 35.2 µM | SK-OV-3 53.6 µM | LOX IMVI > 100 µM | HT-29 > 100 µM | MDA-MB-435 > 100 µM | OVCAR-4 33.7 µM | MCF7 > 100 µM | SK-MEL-28 > 100 µM | NCI-H226 > 100 µM | UACC-62 > 100 µM | TK-10 57.4 µM | RXF 393 > 100 µM | SN12C > 100 µM | MDA-N > 100 µM | MDA-MB-231 > 100 µM

N#Cc1c(/C=C/c2ccccc2)c2c([nH]c1=S)CCCCC2
inactive: U-251 82.2 µM | HOP-62 > 100 µM | ACHN > 100 µM | PC-3 > 100 µM | Hs-578T > 100 µM | SK-OV-3 > 100 µM | LOX IMVI > 100 µM | HT-29 > 100 µM | MDA-MB-435 > 100 µM | OVCAR-4 > 100 µM | IGROV-1 > 100 µM | MCF7 > 100 µM | SK-MEL-28 > 100 µM | NCI-H226 > 100 µM | TK-10 > 100 µM | RXF 393 > 100 µM | SN12C > 100 µM | MDA-N > 100 µM | MDA-MB-231 > 100 µM

CC(=O)NC1=C(Sc2ccc(Cl)cc2)C(=O)c2ccccc2C1=O
inactive: U-251 3.84 µM | ACHN 1.8 µM | PC-3 2.77 µM | Hs-578T 10.4 µM | SK-OV-3 15.7 µM | LOX IMVI 3.55 µM | HT-29 12.2 µM | MDA-MB-435 2.08 µM | OVCAR-4 1.63 µM | IGROV-1 4.84 µM | MCF7 2.08 µM | SK-MEL-28 2.7 µM | NCI-H226 10.6 µM | UACC-62 2.61 µM | TK-10 4.42 µM | RXF 393 1.86 µM | SN12C 4.67 µM | MDA-N 1.76 µM | MDA-MB-231 3.04 µM
